In patent publication EP1242084B1, “TREATMENT OF BREAST CARCINOMAS, ASTROCYTOMAS, MELANOMAS AND RELATED TUMORS” (priority 2000, dated 2001):

Assays:
[1] = system: AML-3 patients; settings: oral, alone; cited from earlier work
[2] = system: human pro-myelocytic leukemia (HL-60 cells); assay: Inhibition of proliferation of HL-60 cells, Trypan Blue cell counts; assay type: cell-based; settings: 1400 micrograms/ml
Excerpt: […] Five ml of each pirfenidone concentration, and of the control were placed into a T25 tissue culture flask along with 1X10^5 cells. Every day for 4 days an aliquote from each flask was taken out, then stained with Trypan Blue, and counts were repeated three times on each aliquote.

[3] = system: human T-cell leukemia (JURKAT) cells; assay: Inhibition of proliferation of JURKAT cells, MTS assay; assay type: cell-based; settings: 900 mcg/ml, 72 hours, statistically significant, read-out: reduction in number of cell which were active
Experimental: (§1) To determine the inhibitory effect of pirfenidone concentrations on human T-cell leukemia (JURKAT), a MTS assay was used which incorporates a tetrazolium dye that measures the cellular conversion of the dye into a formazan product by the activation of NADH-generating dehydrogenases found in metabolically active cells. Procedure: • 1. 100 microl. of cells was seeded into 96 well plates at 1X10^5 cells/ml in media containing 100 mcg/ml, 300 mcg/ml and 900 mcg/ml of pirfenidone, as well as a pirfenidone-free media control. • 2. Cells were incubated at 37 degrees C, at 5.0% CO2 for 72 hours. • 3. After incubation a standard curve was made of 100 microliters of cells added to the plate at 5X10^5 cells/ml making 1:2 dilutions all the way down to a pre-set degree of dilution. • 4. 2.0 mls of the MTS solution was mixed with a 100 microliter of the PMS solution, and 20 microliters of this combined dye solution was added to each well and incubated at 37 degrees C, 5.0% CO2 for 3 hours. • 5. Subsequently the absorbance was read at 490 nm.

[4] = system: human Burkitt's lymphoma (RAJI) cells; assay: Inhibition of proliferation of RAJI cells, MTS assay; assay type: cell-based; settings: 900 mcg/ml, 72 hours, statistically significant, read-out: reduction in number of cells which were active
Experimental: To determine the inhibitory effect of pirfenidone concentrations on Burkitt's lymphoma (RAJI) cells, a MTS assay was used which incorporates a tetrazolium dye that measures the cellular conversion of the dye into a formazan product by the activation of NADH-generating dehydrogenases found in metabolically active cells.
as §1, with “•” for “To determine the inhibitory effect of pirfenidone concentrations on human T-cell leukemia (JURKAT), a MTS assay was used which incorporates a tetrazolium dye that measures the cellular conversion of the dye into a formazan product by the activation of NADH-generating dehydrogenases found in metabolically active cells. Procedure: •”

[5] = system: HUMAN LEIOMYOMA CELLS; assay: Leiomyoma cell proliferation and viability, day 7 cell counts with Trypan Blue stain; assay type: cell-based; parameters: RECENT CELLS LEIOMYOMA: unit not given here; settings: for RECENT CELLS LEIOMYOMA: day 7 (control 0.0 MG: 9.0)
Experimental: Leiomyoma tissues were obtained from several premenopausal women with symptomatic uterine fibroids at elective hysterectomy, and who were not receiving any hormonal or other drug therapy. The fibroid tissues were minced into 1 - 2 mm\# explants and placed in suitable DMEM supplemented with 10% bovine serum. The fibroid tissue was digested for 14 -18 hours at 37 degrees C in an incubator. After centrifugation, a resulting cell pellet was resuspended in DMEM and then placed in culture flasks.
Leiomyoma cells were plated in 100mm dishes (100,000 each dish) and allowed to attach overnight in DMEM plus 10% fetal bovine serum until they reached 80-90% confluence.

| Compound | clinical outcome [1] | Inhibition of proliferation as well as deaths of cells [2] | inhibition at 900 µg/mL [3] | inhibition at 900 µg/mL [4] | RECENT CELLS LEIOMYOMA ([5]; 0.01 MG/ML) | RECENT CELLS LEIOMYOMA ([5]; 0.1 MG/ML) | RECENT CELLS LEIOMYOMA ([5]; 0.3 MG/ML) | RECENT CELLS LEIOMYOMA ([5]; 1.0 MG/ML) | cytotoxicity at 1000 µg/mL ([5]; Homo sapiens, 168 h, read-out: percentage of dead leiomyoma cells) | inhibitory effect on proliferation ([5]; graded concentrations in the culture media, 7 days) |
| --- | --- | --- | --- | --- | --- | --- | --- | --- | --- | --- |
| CC1=C(/C=C/C(C)=C/C=C/C(C)=C/C(=O)O)C(C)(C)CCC1 [All-trans-retinoic acid] | complete remission | – | – | – | – | – | – | – | – | – |
| Cc1ccc(=O)n(-c2ccccc2)c1 [pirfenidone] | – | deaths of almost all cells | 75% | 45% | 8.0 | 10.0 | 6.0 | 16.0 | 16% | significant inhibitory effect |
